# Calls of active or inactive are those of the source. The rule behind the calls is not given here.
# Tests used:
# [1] = biological target: T1, Human immunodeficiency virus type 1 reverse transcriptase (Human immunodeficiency virus 1, UniProt Q72547); assay: Inhibition of HIV1 RT mediated DNA-dependent DNA polymerization using chimeric substrate with RNA PPT primer extended at 3' end with upto 3 deoxyribonucleotides
# [2] = biological target: T1, Human immunodeficiency virus type 1 reverse transcriptase; assay: Inhibition of HIV1 RT mediated DNA-dependent DNA synthesis initiation using DNA PPT-primed substrate
# [3] = biological target: T1, Human immunodeficiency virus type 1 reverse transcriptase; assay: Inhibition of HIV1 RT mediated DNA-dependent DNA synthesis initiation using RNA/DNAM duplex primed substrate by scintillation proximity assay
# [4] = Inhibition of HIV1 RT D443N mutant mediated DNA-dependent DNA polymerization using chimeric substrate with RNA PPT primer extended at 3' end with upto 2 deoxyribonucleotides; parameters: species or system Human immunodeficiency virus 1
# [5] = biological target: T1, Human immunodeficiency virus type 1 reverse transcriptase; assay: Inhibition of HIV1 RT mediated DNA-dependent DNA synthesis initiation using RNA PPT primed substrate by scintillation proximity assay
# [6] = Inhibition of HIV1 RT D443N mutant mediated DNA-dependent DNA polymerization using chimeric substrate with RNA PPT primer extended at 3' end with upto 12 deoxyribonucleotides; parameters: species or system Human immunodeficiency virus 1
# [7] = biological target: T2, Human immunodeficiency virus type 1 reverse transcriptase (Human immunodeficiency virus 1, UniProt Q72547, Y181C); assay: Inhibition of HIV1 RT Y181C mutant mediated DNA-dependent DNA polymerization using RNA PPT primed substrate by scintillation proximity assay
# [8] = Inhibition of HIV1 RT D443N mutant mediated DNA-dependent DNA polymerization using chimeric substrate with RNA PPT primer extended at 3' end with upto one deoxyribonucleotide; parameters: species or system Human immunodeficiency virus 1
# [9] = biological target: T3, Human immunodeficiency virus type 1 reverse transcriptase (Human immunodeficiency virus 1, UniProt Q72547, K103N); assay: Inhibition of HIV1 RT K103N mutant mediated DNA-dependent DNA polymerization using RNA PPT primed substrate by scintillation proximity assay
# [10] = biological target: T1, Human immunodeficiency virus type 1 reverse transcriptase; assay: Inhibition of HIV1 RT mediated DNA-dependent DNA polymerization using chimeric substrate with RNA PPT primer extended at 3' end with upto 9 deoxyribonucleotides
# [11] = tested on: Human immunodeficiency virus 1; assay: Inhibition of HIV1 RT D443N mutant mediated DNA-dependent DNA polymerization
# [12] = biological target: T1, Human immunodeficiency virus type 1 reverse transcriptase; assay: Inhibition of HIV1 RT mediated DNA-dependent DNA polymerization using chimeric substrate with RNA PPT primer extended at 3' end with upto 12 deoxyribonucleotides
# [13] = biological target: T1, Human immunodeficiency virus type 1 reverse transcriptase; assay: Inhibition of HIV1 RT mediated RNA-dependent minus-strand DNA synthesis after 5 mins by gel-based assay
# [14] = Inhibition of HIV1 RT D443N mutant mediated DNA-dependent DNA polymerization using chimeric substrate with RNA PPT primer; parameters: species or system Human immunodeficiency virus 1
# [15] = biological target: T1, Human immunodeficiency virus type 1 reverse transcriptase; assay: Inhibition of HIV1 RT mediated DNA-dependent DNA polymerization using chimeric substrate with RNA PPT primer extended at 3' end with upto 2 deoxyribonucleotides
# [16] = biological target: T2, Human immunodeficiency virus type 1 reverse transcriptase; assay: Inhibition of HIV1 RT Y181C mutant mediated DNA-dependent DNA polymerization using RNA/DNAM duplex primed substrate by scintillation proximity assay
# [17] = Inhibition of HIV1 RT D443N mutant mediated DNA-dependent DNA polymerization using chimeric substrate with RNA PPT primer extended at 3' end with upto 3 deoxyribonucleotides; parameters: species or system Human immunodeficiency virus 1
# [18] = biological target: T1, Human immunodeficiency virus type 1 reverse transcriptase; assay: Inhibition of HIV1 RT mediated DNA-dependent DNA polymerization using chimeric substrate with RNA PPT primer
# [19] = biological target: T1, Human immunodeficiency virus type 1 reverse transcriptase; assay: Inhibition of HIV1 RT mediated DNA-dependent DNA polymerization using chimeric substrate with RNA PPT primer extended at 3' end with upto one deoxyribonucleotide
# [20] = biological target: T1, Human immunodeficiency virus type 1 reverse transcriptase; assay: Inhibition of HIV1 RT mediated DNA-dependent DNA polymerization
# [21] = biological target: T1, Human immunodeficiency virus type 1 reverse transcriptase; assay: Inhibition of HIV1 RT mediated DNA-dependent plus-strand DNA polymerization after 5 mins by gel-based assay
# [22] = biological target: T2, Human immunodeficiency virus type 1 reverse transcriptase; assay: Inhibition of HIV1 RT Y181C mutant mediated DNA-dependent DNA polymerization using DNA PPT primed substrate by scintillation proximity assay
# [23] = biological target: T3, Human immunodeficiency virus type 1 reverse transcriptase; assay: Inhibition of HIV1 RT K103N mutant mediated DNA-dependent DNA polymerization using RNA/DNAM duplex primed substrate by scintillation proximity assay
# [24] = Inhibition of HIV1 RT D443N mutant mediated DNA-dependent DNA polymerization using chimeric substrate with RNA PPT primer extended at 3' end with upto 9 deoxyribonucleotides; parameters: species or system Human immunodeficiency virus 1
# [25] = Inhibition of HIV1 RT D443N mutant mediated DNA-dependent DNA polymerization using chimeric substrate with RNA PPT primer extended at 3' end with upto 6 deoxyribonucleotides; parameters: species or system Human immunodeficiency virus 1
# [26] = biological target: T3, Human immunodeficiency virus type 1 reverse transcriptase; assay: Inhibition of HIV1 RT K103N mutant mediated DNA-dependent DNA polymerization using DNA PPT primed substrate by scintillation proximity assay
smiles,measurement,setting,value
CCc1cc(NCc2nc3c(Cl)ccc(Cl)c3o2)c(O)nc1C [L-697661],IC50,[1],270 nM
same,IC50,[2],> 10000 nM
same,IC50,[3],230 nM
same,IC50,[4],230 nM
same,IC50,[5],430 nM
same,IC50,[6],150 nM
same,IC50,[7],> 5000 nM
same,IC50,[8],240 nM
same,IC50,[9],> 5000 nM
same,IC50,[10],320 nM
same,Activity,[11],inactive
same,IC50,[12],130 nM
same,IC50,[13],1400 nM
same,IC50,[14],440 nM
same,IC50,[15],280 nM
same,IC50,[16],> 5000 nM
same,IC50,[17],240 nM
same,IC50,[18],280 nM
same,IC50,[19],220 nM
same,IC50,[20],290 nM
same,IC50,[21],35 nM
same,IC50,[22],> 5000 nM
same,IC50,[23],> 5000 nM
same,IC50,[24],130 nM
same,IC50,[25],270 nM
same,IC50,[26],> 5000 nM
Cc1cn([C@H]2C[C@H](N=[N+]=[N-])[C@@H](CO[P@](=O)(O)O[P@](=O)(O)OP(=O)(O)O)O2)c(=O)[nH]c1=O [ZIDOVUDINE TRIPHOSPHATE],IC50,[3],360 nM
same,IC50,[5],320 nM

# From ChEMBL document CHEMBL1156428 (J Biol Chem, 2007)
